US5856574A, “Ortho-subsituted benzoylguanidines, process for their preparation, their use as a medicament or diagnostic, and medicament containing them” (Hoechst Aktiengesellschaft, priority 1996, dated 1999)
pIC50: −log10 of the molar value. Structures can show the parent of a compound that is named as a salt.

Tests used:
[1] = target: T1, rabbit erythrocyte Na^+ /H^+ exchanger (Oryctolagus cuniculus, UniProt P23791); assay: Inhibition of the rabbit erythrocyte Na^+ /H^+ exchanger (amiloride-sensitive sodium influx, flame photometry); type: cell-based, rabbit (New Zealand White); conditions: rabbit erythrocytes, cholesterol-fed, 37° C., pH 7.4
T1 construct: determine the Na+influx into the erythrocytes by way of Na^+ /H^+ exchange; endogenous in cells; host or cells: intact erythrocytes in heparinised blood of cholesterol-fed New Zealand White rabbits
T1 sequence (P23791 whole entry): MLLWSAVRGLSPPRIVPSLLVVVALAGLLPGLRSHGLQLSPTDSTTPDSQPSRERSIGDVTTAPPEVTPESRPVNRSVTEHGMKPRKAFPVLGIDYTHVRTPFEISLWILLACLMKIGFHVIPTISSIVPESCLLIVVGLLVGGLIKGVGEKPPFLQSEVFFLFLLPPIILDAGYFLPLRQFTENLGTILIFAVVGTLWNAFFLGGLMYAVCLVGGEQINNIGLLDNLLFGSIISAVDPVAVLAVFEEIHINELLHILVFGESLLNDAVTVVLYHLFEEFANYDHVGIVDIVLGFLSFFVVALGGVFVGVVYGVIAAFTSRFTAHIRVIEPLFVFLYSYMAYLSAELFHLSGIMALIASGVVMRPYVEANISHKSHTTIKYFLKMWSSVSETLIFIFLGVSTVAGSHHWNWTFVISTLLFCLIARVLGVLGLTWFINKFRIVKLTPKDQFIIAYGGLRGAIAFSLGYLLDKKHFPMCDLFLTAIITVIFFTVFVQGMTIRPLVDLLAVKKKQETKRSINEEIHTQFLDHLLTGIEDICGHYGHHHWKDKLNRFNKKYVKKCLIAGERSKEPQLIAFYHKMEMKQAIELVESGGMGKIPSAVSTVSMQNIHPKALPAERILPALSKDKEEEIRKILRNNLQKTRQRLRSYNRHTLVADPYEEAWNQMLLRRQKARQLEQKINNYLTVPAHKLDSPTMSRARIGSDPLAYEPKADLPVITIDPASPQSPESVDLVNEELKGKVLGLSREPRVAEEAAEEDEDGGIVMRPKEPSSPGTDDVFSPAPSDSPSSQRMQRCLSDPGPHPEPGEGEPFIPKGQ
Description: Inhibition of the rabbit erythrocyte Na^+ /H^+ exchanger
New Zealand White rabbits (Ivanovas) were given a standard diet containing 2% cholesterol for six weeks in order to activate Na^+ /H^+ exchange and thereby making it possible to use flame photometry to determine the Na+influx into the erythrocytes by way of Na^+ /H^+ exchange. The blood was withdrawn from the aural arteries and rendered incoagulable by adding 25 IU of potassium heparin. A part of each sample was used for determining the hematocrit in duplicate by means of centrifugation. Aliquots of in each case 100 μl were used for measuring the initial content of Na^+ in the erythrocytes.
In order to determine the amiloride-sensitive sodium influx, 100 μl of each blood sample were in each case incubated, at 37° C. and pH 7.4, in 5 ml of a hyper osmolar salt/sucrose medium (mmol/l: 140 NaCl, 3 KCL, 150 sucrose, 0.1 ouabain, 20 tris(hydroxymethyl)aminomethane). After that, the erythrocytes were washed three times with an ice-cold MgCl2 /ouabain solution (mmol/l: 112 MgCl2, 0.1 ouabain) and hemolyzed in 2.0 ml of distilled water. The intracellular content of sodium was determined by flame photometry.
The net Na^+ influx was calculated from the difference between the initial sodium values and the sodium content of the erythrocytes after incubation. The amiloride-inhibitable sodium influx was obtained from the difference in the sodium content of the erythrocytes after incubating them with and without […] amiloride. This procedure was also used in the case of the novel compounds.

[2] = Intraduodenal bioavailability; type: in vivo
[3] = Plasma elimination half life, rat, i.v.; type: in vivo; conditions: iv
[4] = Plasma elimination half life, dog, i.v.; type: in vivo; conditions: iv

pIC50 [1] | Intraduodenal bioavailability [2] | half-life [3] | half-life [4] | Structure (SMILES)
7.70 | good | 19.2 min | 66 min | COc1cc(Cl)c(C(=O)N=C(N)N)cc1C(F)(F)F [Example 1, 2-Chloro4-methoxy-5-trifluoromethylbenzoylguanidine hydrochloride]
7.30 | – | – | – | NC(N)=NC(=O)c1cc(C(F)(F)F)cc(I)c1Cl [Example 2, 2-Chloro-3-iodo-5-trifluoromethylbenzoylguanidine hydrochloride]
7.15 | – | – | – | CCCc1cc(C(F)(F)F)cc(C(=O)N=C(N)N)c1Cl [Example 4, 2-Chloro-3-n-propyl-5-trifluoromethylbenzoylguanidine hydrochloride]
7.70 | good | 42 min | – | CC(C)c1cc(C(F)(F)F)cc(C(=O)N=C(N)N)c1Cl [Example 5, 2-Chloro-3-isopropyl-5-trifluoromethylbenzoylguanidine hydrochloride]
7.22 | – | – | – | NC(N)=NC(=O)c1cc(C(F)(F)F)cc(C2CCCC2)c1Cl [Example 6, 2-Chloro-3-cyclopentyl-5-trifluoromethylbenzoylguanidine hydrochloride]
7.52 | – | – | – | NC(N)=NC(=O)c1cc(C(F)(F)F)c(C2CCCC2)cc1Cl [Example 7, 2-Chloro4-cyclopentyl-5-trifluoromethylbenzoylguanidine hydrochloride]
8.00 | – | – | – | CCCc1cc(Cl)c(C(=O)N=C(N)N)cc1C(F)(F)F [Example 8, 2-Chloro4-n-propyl-5-trifluoromethylbenzoylguanidine hydrochloride]
